In paper PMC9610793, “Novel Aporphine- and Proaporphine–Clerodane Hybrids Identified from the Barks of Taiwanese Polyalthia longifolia (Sonn.) Thwaites var. pendula with Strong Anti-DENV2 Activity” (Pharmaceuticals, 2022):

What was measured:
[1] = test system: DENV2; assay: In vitro anti-DENV2 post-infection assay: DENV2 RNA level by RT-qPCR in DENV2-infected Huh-7 cells; format: cell-based, DENV serotype 2 (strain 16681); settings: for IC50 / EC50: Dengue virus; for IC50: DENV2, Huh-7, 72 h, read-out: IC50 (concentration of the compound resulting in a 50% inhibition in virus production); for SI (selectivity index, SI = CC50/IC50): CC50 in uninfected Huh-7 cells / IC50 against DENV2; for EC50: DENV2-infected Huh-7 cells, range over compounds 1–4
Procedure: Concerning their biological activity, the anti-DENV2 activity of polyalongarins A–D (1–4) was examined using post-infection assay. The DENV2-infected Huh-7 cells were incubated with each of 1–4 at a concentration of 5, 10, or 20 μM for 72 hrs (0.2 μM celastrol and 0.1% DMSO served as positive control and mock control, respectively). […] Based on previous reports, a compound that diminishes the DENV activity by 90% but presents a 50% cytotoxic concentration (CC50) > 15 μM is considered a “hit”. By this definition, compounds 1–4 are good hits without doubt.
(§1) Figure 5 In vitro anti-DENV2 assay for 1–4. (A) DENV2-infected/uninfected Huh-7 cells were incubated with celastrol (Cela, 0.2 μM, positive control) or indicated concentrations of 1–4 (5 to 25 μM) for 72 h. Total DENV2 RNA expression (%) was extracted and quantified. The DENV2 RNA level was measured by RT-qPCR. The DENV2 RNA expression was normalized by cellular GAPDH mRNA. (B) DENV2-infected Huh-7 cells were treated with 10 μM of 1–4. The NS2B protein expression was analyzed by western blotting with anti-NS2B and anti-GAPDH antibodies (a loading control). (C) The cell viability (%) was determined by the XTT method. Treatment with 0.1% DMSO served as a mock control. The results are expressed as the means ± standard errors of the means (SEM) of triplicate experiments.
Huh-7 human liver carcinoma cell line, purchased from Bioresources Collection and Research Center, Taiwan, were maintained in Dulbecco’s modified Eagle’s medium (DMEM) supplemented with 10% fetal bovine serum (FBS), 1% non-essential amino acids (NEAA), and 1% penicillin and streptomycin at 37 °C in a humidified 5% CO2 incubator. The DENV serotype 2 (strain 16681) was directly from the Centers for Disease Control, Department of Health, Taiwan, and was amplified in Aedes albopictus C6/36 cell line (CRL-1660, ATCC, USA). C6/36 cells were cultured in RPMI 1640 medium supplemented with 2% FBS. Huh-7 cells were seeded at a density of 5 × 10^4 cells/mL in the 24-well plate for 16–20 h and then infected with DENV2 at a multiplicity of infection (MOI) of 0.1 PFU/cell for 2 h at 37 °C. The viral titer was determined in a plaque assay in the Huh-7 cells. Then, DENV2-infected Huh-7 cells were washed with PBS and refilled, respectively, with DMEM−2% FBS medium containing […] (positive control), 0.1% DMSO (mock control), and various indicating concentration of test compounds. After incubation at 37 °C for 72 h, DENV2-infected Huh-7 cells were harvested and cell lysates were prepared for quantification of DENV RNA by RT-qPCR. Total cellular RNA was extracted using Total RNA Miniprep Purification Kit (GMbiolab, Taiwan) according to the manufacturer’s instructions.

[2] = Cytotoxic assay (XTT cell viability); format: cell-based; settings: human, uninfected Huh-7 cells, read-out: CC50 (concentration of the compound causing a 50% growth inhibition of uninfected Huh-7 cells)
Procedure: as §1
In structural elucidation, the optical rotations were determined using a JASCO P-1020 polarimeter (Jasco Co., Tokyo, Japan); the ultraviolet spectra (UV) were recorded on a JASCO V530 UV/VIS spectrophotometer; the circular dichroism spectroscopy (CD) were recorded on a JASCO J-815 spectrophotometer; the infrared spectra (IR) were recorded on a Mattson Genesis II FT-IR spectrophotometer (Thermo Nicolet, Madison, WI, USA); electrospray ionization mass (ESIMS) and high-resolution ESIMS data were measured using a VG Biotech Quattro 5022 mass spectrometer (VG Biotech, UK); nuclear magnetic resonance (NMR) spectra were collected on a Varian Unity Inova-400 MHz NMR system; the single crystal X-ray diffraction of pure compounds was determined by Bruker APEX II X-ray single crystal diffractometer. In chemical isolation and separation, column chromatography (CC) was applied including silica gel 60 (70–230 and 230–400 mesh, Merck, Darmstadt, Germany), Sephadex LH-20 (Pharmacia), and pre-coated silica gel TLC plates (aluminum Merck Silica gel 60 F254). […] In biological evaluation, cell viability/cytotoxicity assay was evaluated using CellTiter 96 AQueous One Solution Cell Proliferation Assay (Promega, Madison, WI, USA) according to the manufacturer’s instructions, where the color intensity was detected at 490 nm using a 550 BioRad plate-reader for determining the number of viable cells in proliferation. Computational modeling analyzed by PyMOL 2.0 software (creator is Warren L. DeLano; published by Schrödinger, Inc. 2017; and the latest vision is PyMOL 2.5 vision).
Huh-7 cells were seeded in 96-well plates at a density 5 × 10^4 cells/well in 120 μL of culture medium and incubated for 6 hr in a humidified CO2 (5%) atmosphere. […] Then, the XTT method was applied to cell viability evaluation: cells were dyed by 2,3-bis(2-methyloxy-4-nitro-5-sulfophenyl)-2H-tetrazolium-5-carboxanilide and recorded by an enzyme-linked immunosorbent assay (ELISA) plate reader (at UV 490 nm). […]

Compound: CC1=C(O)C(=O)C=C2C1=CC=C1[C@@]2(C)CC[C@@]2(C)[C@@H]3C[C@](C)(C(=O)O)CC[C@]3(C)CC[C@]12C [Celastrol, reference compound]
- IC50 [1]: 0.12 ± 0.01 µM

Compound: COc1c2c3c(c(OC)c1OC)-c1ccccc1C[C@H]3N([C@@H]1OC(=O)C=C1CC[C@@]1(C)[C@H](C)CC[C@@]3(C)C(C)=CCC[C@H]13)CC2 [polyalongarin B (2), Polyalongarin B]
- SI (selectivity index, SI = CC50/IC50) [1]: 18
- IC50 [1]: 2.8 ± 0.23 µM
- EC50 [1]: 2.8 to 6.4 µM
- CC50 at 72 h [2]: 50.4 ± 10.2 µM

Compound: COc1cc2c(cc1O)CC1c3c(cc(OC)c(OC)c3-2)CCN1C1OC(=O)C=C1CCC1(C)C(C)CCC2(C)C(C)=CCCC21 (stereo not shown) [polyalongarin C (3), Polyalongarin C]
- SI (selectivity index, SI = CC50/IC50) [1]: 21.3
- IC50 [1]: 3.24 ± 0.16 µM
- EC50 [1]: 2.8 to 6.4 µM
- CC50 at 72 h [2]: 69.1 ± 14 µM

Compound: COc1cc2c3c(c1OC)C1(C=CC(=O)C=C1)C[C@H]3N([C@@H]1OC(=O)C=C1CC[C@@]1(C)[C@H](C)CC[C@@]3(C)C(C)=CCC[C@H]13)CC2 [polyalongarin D (4), Polyalongarin D]
- SI (selectivity index, SI = CC50/IC50) [1]: 14.9
- IC50 [1]: 6.36 ± 0.09 µM
- EC50 [1]: 2.8 to 6.4 µM
- CC50 at 72 h [2]: 94.5 ± 10.2 µM

Compound: CC1=CCCC2C1(C)CCC(C)C2(C)CCC1=CC(=O)OC1N1CCc2cc3c(c4c2C1Cc1ccccc1-4)OCO3 (stereo not shown) [polyalongarin A (1), Polyalongarin A]
- IC50 [1]: 4.46 ± 0.12 µM
- EC50 [1]: 2.8 to 6.4 µM
- CC50 at 72 h [2]: > 200 µM
